Results reported in article PMC8954523 (Pharmaceutics, 2022).

Test: Dissolution and solvation thermodynamic functions (van't Hoff; solubility minus sublimation)
Format: physicochemical
Protocol: The dissolution thermodynamic parameters on the standard state were determined using mole fraction unitary units. […] Since the resulting solutions are very dilute, and their densities are very close to those of the pure solvents. The density values of the pure solvents were used in calculations (Table S1). […] The temperature dependences of the experimental solubility were treated mathematically by the van't Hoff equation, and the apparent solution enthalpies ΔHsol0 were determined as follows:(3) ∂(lnX2)/∂T=ΔHsol0/RT^2 […] Next, the apparent solution entropies ΔSsol0 were derived by the equation:(5) ΔGsol0=ΔHso[…] The solvation of one mole of the solute molecules in the solvent can be defined as the total change of the standard thermodynamic functions ( ΔGsolv0 , ΔHsolv0 , ΔSsolv0 ) of the compound upon transferring it from the gaseous phase (ideal gas; single molecules without interaction) into the solvent. The transfer process can be presented as the difference between the dissolution and sublimation thermodynamic functions by:(6) ΔYsolv0=ΔYso[…] where ΔY^0 is the standard change of any of the thermodynamic functions (ΔG^0, ΔH^0, ΔS^0) of solvation ( ΔYsolv0 ), dissolution ( ΔYsol0 ) or sublimation ( ΔYsubo ).

[1] = Table S6, 1-octanol, all studied temperatures
[2] = Table S6, ethanol, all studied temperatures

Compound: CC(O)(CS(=O)(=O)c1ccc(F)cc1)C(=O)Nc1ccc(C#N)c(C(F)(F)F)c1 (stereo not shown) [BCL, bicalutamide]
- TΔSsol0 (1-octanol, 298.15 K): 0.263 kcal/mol
- ΔGsol0 (1-octanol, 298.15 K): 4.9 kcal/mol
- ΔHsol0 (1-octanol, 298.15 K): 5.16 ± 0.096 kcal/mol
- ΔSsol0 (1-octanol, 298.15 K): 3.7 ± 3.6 J∙mol^−1·K^−1
- ζHsolv (1-octanol, 298.15 K): 63.3%
- ζTSsolv (1-octanol, 298.15 K): 36.7%
- −TΔSsolv0 (1-octanol, 298.15 K): 14.3 kcal/mol
- −ΔGsolv0 (1-octanol, 298.15 K): 10.3 kcal/mol
- −ΔHsolv0 (1-octanol, 298.15 K): 24.64 kcal/mol
- −ΔSsolv0 (1-octanol, 298.15 K): 200.9 J∙mol^−1·K^−1
- TΔSsol0 (Table S6, 1-octanol, 293.15 K): 0.265 kcal/mol
- ΔGsol0 (Table S6, 1-octanol, 293.15 K): 4.897 kcal/mol
- ΔSsol0 (Table S6, 1-octanol, 293.15 K): 3.79 J∙mol-1·K-1
- ζTSsolv (Table S6, 1-octanol, 293.15 K): 36.74%
- −TΔSsolv0 (Table S6, 1-octanol, 293.15 K): 14.31 kcal/mol
- −ΔGsolv0 (Table S6, 1-octanol, 293.15 K): 10.33 kcal/mol
- TΔSsol0 (Table S6, 1-octanol, 298.15 K): 0.265 kcal/mol
- ΔGsol0 (Table S6, 1-octanol, 298.15 K): 4.897 kcal/mol
- ΔSsol0 (Table S6, 1-octanol, 298.15 K): 3.73 J∙mol-1·K-1
- ζTSsolv (Table S6, 1-octanol, 298.15 K): 36.74%
- −TΔSsolv0 (Table S6, 1-octanol, 298.15 K): 14.31 kcal/mol
- −ΔGsolv0 (Table S6, 1-octanol, 298.15 K): 10.33 kcal/mol
- −ΔSsolv0 (Table S6, 1-octanol, 298.15 K): 200.87 J∙mol-1·K-1
- TΔSsol0 (Table S6, 1-octanol, 303.15 K): 0.275 kcal/mol
- ΔGsol0 (Table S6, 1-octanol, 303.15 K): 4.888 kcal/mol
- ΔSsol0 (Table S6, 1-octanol, 303.15 K): 3.81 J∙mol-1·K-1
- ζHsolv (Table S6, 1-octanol, 303.15 K): 63.27%
- ζTSsolv (Table S6, 1-octanol, 303.15 K): 36.73%
- −TΔSsolv0 (Table S6, 1-octanol, 303.15 K): 14.3 kcal/mol
- −ΔGsolv0 (Table S6, 1-octanol, 303.15 K): 10.34 kcal/mol
- TΔSsol0 (Table S6, 1-octanol, 308.15 K): 0.272 kcal/mol
- ΔGsol0 (Table S6, 1-octanol, 308.15 K): 4.89 kcal/mol
- ΔSsol0 (Table S6, 1-octanol, 308.15 K): 3.70 J∙mol-1·K-1
- ζHsolv (Table S6, 1-octanol, 308.15 K): 63.27%
- ζTSsolv (Table S6, 1-octanol, 308.15 K): 36.73%
- −TΔSsolv0 (Table S6, 1-octanol, 308.15 K): 14.31 kcal/mol
- −ΔGsolv0 (Table S6, 1-octanol, 308.15 K): 10.33 kcal/mol
- TΔSsol0 (Table S6, 1-octanol, 313.15 K): 0.287 kcal/mol
- ΔGsol0 (Table S6, 1-octanol, 313.15 K): 4.876 kcal/mol
- ΔSsol0 (Table S6, 1-octanol, 313.15 K): 3.82 J∙mol-1·K-1
- ζHsolv (Table S6, 1-octanol, 313.15 K): 63.29%
- −ΔSsolv0 (Table S6, 1-octanol, 313.15 K): 190.96 J∙mol-1·K-1
- ΔHsol0 [1]: 5.16 kcal/mol
- −ΔHsolv0 [1]: 24.64 kcal/mol
- TΔSsol0 (Table S6, ethanol, 293.15 K): 2.964 kcal/mol
- ΔGsol0 (Table S6, ethanol, 293.15 K): 3.944 kcal/mol
- ΔSsol0 (Table S6, ethanol, 293.15 K): 42.29 J∙mol-1·K-1
- ζHsolv (Table S6, ethanol, 293.15 K): 66.34%
- TΔSsol0 (Table S6, ethanol, 298.15 K): 3.023 kcal/mol
- ΔGsol0 (Table S6, ethanol, 298.15 K): 3.872 kcal/mol
- ΔSsol0 (Table S6, ethanol, 298.15 K): 42.43 J∙mol-1·K-1
- ζTSsolv (Table S6, ethanol, 298.15 K): 33.54%
- −ΔGsolv0 (Table S6, ethanol, 298.15 K): 11.34 kcal/mol
- TΔSsol0 (Table S6, ethanol, 303.15 K): 3.081 kcal/mol
- ΔGsol0 (Table S6, ethanol, 303.15 K): 3.826 kcal/mol
- ΔSsol0 (Table S6, ethanol, 303.15 K): 42.52 J∙mol-1·K-1
- ζTSsolv (Table S6, ethanol, 303.15 K): 33.43%
- −TΔSsolv0 (Table S6, ethanol, 303.15 K): 11.5 kcal/mol
- −ΔGsolv0 (Table S6, ethanol, 303.15 K): 11.4 kcal/mol
- −ΔSsolv0 (Table S6, ethanol, 303.15 K): 158.70 J∙mol-1·K-1
- TΔSsol0 (Table S6, ethanol, 308.15 K): 3.136 kcal/mol
- ΔGsol0 (Table S6, ethanol, 308.15 K): 3.772 kcal/mol
- ΔSsol0 (Table S6, ethanol, 308.15 K): 42.56 J∙mol-1·K-1
- ζTSsolv (Table S6, ethanol, 308.15 K): 33.32%
- −TΔSsolv0 (Table S6, ethanol, 308.15 K): 11.44 kcal/mol
- −ΔGsolv0 (Table S6, ethanol, 308.15 K): 11.45 kcal/mol
- TΔSsol0 (Table S6, ethanol, 313.15 K): 3.162 kcal/mol
- ΔGsol0 (Table S6, ethanol, 313.15 K): 3.745 kcal/mol
- ΔSsol0 (Table S6, ethanol, 313.15 K): 42.24 J∙mol-1·K-1
- ζTSsolv (Table S6, ethanol, 313.15 K): 33.27%
- −TΔSsolv0 (Table S6, ethanol, 313.15 K): 11.42 kcal/mol
- −ΔGsolv0 (Table S6, ethanol, 313.15 K): 11.48 kcal/mol
- ΔHsol0 [2]: 6.91 kcal/mol
- −ΔHsolv0 [2]: 22.9 kcal/mol
- TΔSsol0 (Table S6, n-hexane, 293.15 K): 3.537 kcal/mol
- ΔGsol0 (Table S6, n-hexane, 293.15 K): 8.222 kcal/mol
